Where two headings read alike, the source gives them in different places. Each block holds one compound with its values, some of them ahead of it.
Assays:
hH2R-Gsαs fusion protein [1] = target: T1, hH2R-Gsαs fusion protein (Homo sapiens, UniProt P25021); assay: Radioligand saturation binding on Sf9 membranes; details: membranes of Sf9 insect cells expressing hH2R-Gsαs
T1 construct: made in house; host or cells: Sf9 insect cells (recombinant baculovirus), membrane preparation
Protocol: (§1) All data analysis was performed using Prism 5.0c (GraphPad, San Diego, CA, USA).
Supplementary Figure S7. […] Saturation binding assay was performed as previously described.^3

NLuc-hH2R [2] = target: T2, NLuc-hH2R (Homo sapiens, UniProt P25021); assay: BRET-based competition binding with fluorescent ligand 8; details: competition with 8 (c = 50 nM), live HEK293T cells stably expressing NLuc-hH2R, 60 min; mean ± SEM; read-out: pKi (NanoBRET) (converted)
T2 construct: membrane signal peptide of the murine 5HT3A receptor (N); expressed in transfected cells
T2 sequence (P25021 whole entry): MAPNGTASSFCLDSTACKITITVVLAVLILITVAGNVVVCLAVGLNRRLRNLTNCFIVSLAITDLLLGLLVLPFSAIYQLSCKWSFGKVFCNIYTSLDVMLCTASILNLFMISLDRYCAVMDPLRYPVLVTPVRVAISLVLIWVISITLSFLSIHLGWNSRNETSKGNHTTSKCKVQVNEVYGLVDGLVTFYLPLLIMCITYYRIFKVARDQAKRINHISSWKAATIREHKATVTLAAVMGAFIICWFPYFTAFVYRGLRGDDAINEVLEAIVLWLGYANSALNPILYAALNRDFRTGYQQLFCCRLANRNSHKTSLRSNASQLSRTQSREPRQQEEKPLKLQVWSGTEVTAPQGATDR
Protocol: (§2) KG, Wertheim, Germany). The cells were then incubated at 37 °C in a humidified atmosphere (no additional CO2) overnight. […] After 60 min incubation time at 27 °C, 10 μL of the substrate furimazine, which was diluted according to manufacturer's protocol beforehand, were added. After 5 min of equilibration time at 27 °C, the measurement was started. […] After addition of the diluted substrate, the plate was placed inside the reader for 5 min to equilibrate. […] Dissociation experiments were conducted in wells, which have been preincubated with 8 as described above for association experiments. […] All measurements were performed on a TECAN InfiniteLumi plate reader (TECAN, Grödig, Austria) at 27 °C using the Blue2 NB (460 nm ± 35 nm, bandpass) and the Red NB (> 610 nm, longpass) filter combination with an integration time of 100 ms. For the kinetic experiments, integration time was increased to 500 ms for both channels to reduce noise. BRET ratios were calculated by dividing the acceptor emission (red NB) by the donor luminescence (Blue2 NB). For all BRET binding experiments, specific binding was calculated by subtracting non-specific binding from total binding yielding the “corrected BRET ratio”. For saturation binding experiments, total and non-specific binding were fitted simultaneously using the “one-site total and nonspecific binding” fit. Specific binding was fitted accordingly applying the “one-site specific binding” fit. […] The normalized competition binding curves were then fitted with a four-parameter logistic fit yielding pIC50-values. These were transformed into pKi-values using the Cheng-Prusoff equation[38].

hH2R-Gsαs fusion protein [3] = target: T3, hH2R-Gsαs fusion protein (Homo sapiens, UniProt P25021+P63092); details: [3H]UR-DE257; cited from earlier work
T3 construct: made in house; host or cells: Sf9 insect cells (recombinant baculovirus), membrane preparation
T3 sequence (P25021+P63092 fused): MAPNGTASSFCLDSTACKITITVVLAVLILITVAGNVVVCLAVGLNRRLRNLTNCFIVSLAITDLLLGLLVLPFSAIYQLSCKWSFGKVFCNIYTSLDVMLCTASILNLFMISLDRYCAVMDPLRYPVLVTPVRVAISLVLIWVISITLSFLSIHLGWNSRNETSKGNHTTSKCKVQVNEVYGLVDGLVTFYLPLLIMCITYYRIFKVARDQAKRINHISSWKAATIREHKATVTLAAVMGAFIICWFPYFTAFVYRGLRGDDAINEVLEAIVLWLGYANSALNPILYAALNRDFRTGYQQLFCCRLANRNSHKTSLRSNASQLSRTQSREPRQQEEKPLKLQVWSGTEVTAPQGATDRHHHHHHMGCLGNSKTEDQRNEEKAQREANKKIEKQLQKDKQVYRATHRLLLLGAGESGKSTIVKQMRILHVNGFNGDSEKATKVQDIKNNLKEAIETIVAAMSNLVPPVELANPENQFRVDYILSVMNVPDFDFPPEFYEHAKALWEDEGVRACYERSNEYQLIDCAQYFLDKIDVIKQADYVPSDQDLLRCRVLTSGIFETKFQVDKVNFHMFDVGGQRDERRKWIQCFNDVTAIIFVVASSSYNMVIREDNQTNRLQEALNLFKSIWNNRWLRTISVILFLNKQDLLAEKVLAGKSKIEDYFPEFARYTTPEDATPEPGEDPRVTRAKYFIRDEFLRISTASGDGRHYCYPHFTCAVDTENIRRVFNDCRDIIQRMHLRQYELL

hH2R [4] = details: [125I]-iodoaminopotentidine, re-calculated from published Ki; cited from earlier work
hH2R-Gsαs fusion protein [5] = target: T1, hH2R-Gsαs fusion protein; assay: Radioligand competition binding with [3H]UR-DE257 on Sf9 membranes; details: read-out: pKi (RL comp. binding Sf9 membranes) (converted)
Protocol: as §1

hH2R [6] = target: T4, hH2R (Homo sapiens, UniProt P25021); assay: β-Arrestin2 recruitment assay (split-luciferase complementation), HEK293T-ARRB2-H2R cells; format: cell-based; design: expressed in transfected cells; host or cells: HEK293T-ARRB2-H2R cell line; details: read-out: pKb (β-arrestin2 recruitment) (converted)
T4 sequence (P25021 whole entry): as the sequence (P25021 whole entry) above

[7] = Chemical stability in binding buffer (HPLC); format: physicochemical
Protocol: The chemical stability of the fluorescent H2R ligands UR-KAT478 (8), UR-KAT515 (9) and UR-KAT514 (10) was investigated at physiological pH (7.4) in binding buffer (12.5 mM MgCl2, 1 mM EDTA and 75 mM Tris/HCl, pH 7.4)^1 and in case of UR-KAT514 (10) as well in a mixture of DMSO/binding buffer 1:1. Incubation was started by addition of 27.5 μL of a 2.5 mM solution of the respective compounds in DMSO/Millipore H2O 1:1, which were freshly prepared from a 5 mM stock solution in DMSO, to 522.5 μL of binding buffer or DMSO/binding buffer 1:1 yielding a final concentration of […]. The samples were shaken for up to 4 days at 700 rpm. After indicated time periods, a 70 μL aliquot was taken and diluted with 70 µL of a mixture of MeCN, Millipore H2O and 10% aqueous TFA (60:90:1). Prior to HPLC analysis, the samples were stored at -20 °C. 50 μL of the resulting solution were analyzed by HPLC as described in the experimental section. The absorption was detected at 220 nm. The blank HPLC run was performed under identical conditions without any ligand.

NLuc-hH2R [8] = target: T2, NLuc-hH2R; assay: NanoBRET saturation binding assay
Protocol: as §2

hH2R [9] = target: T4, hH2R; assay: Flow cytometric saturation binding assay with HEK293T-hH2R-qs5-HA cells; design: expressed in transfected cells; host or cells: HEK293T-hH2R-qs5-HA cells; details: saturation binding at HEK293T-hH2R-qs5-HA cells; mean ± SEM; read-out: pKd (Flow cytometry) (converted)
Protocol: All flow cytometric measurements were performed with FACSCanto™II flow cytometer (Becton Dickinson, Heidelberg, Germany), equipped with an argon laser (488 nm) and a red diode laser (633 nm) (settings: FCS: A, log, 0 V; SSC: A, log, 252 V; ACP: A,H,W, log, 350 V or PerCP-Cy5-5: A,H, log 485 V or PE: A,H,W, log, 420 V) according to general protocols with minor modifications.^4,5 All measurements were performed in duplicate and recorded either in channel PerCP-Cy5 (Py-1, excitation: 488 nm), APC (BODIPY 630/650, excitation: 633 nm) or PE (TAMRA, excitation: 488 nm). Data acquisition was stopped after 10,000 gated events.
Cell culture and preparation of HEK293T-hH2R-qs5-HA cells was performed as described.^4 Briefly, cells were maintained in 25 or 175 cm^2 flasks (Sarstedt, Nümbrecht, Germany) in a humidified atmosphere (95% air, 5% CO2) at 37 °C using Dulbecco`s Modified Eagle`s Medium supplemented with 2 mM L-glutamine (Sigma-Aldrich, Munich, Germany), 10% FCS, 400 µg/mL geneticin (G418), and 100 µg/mL hygromycin B (AG Scientific, San Diego, CA, USA). On the day of the experiment, cells were detached with trypsin/EDTA (0.05%/0.2%) and centrifuged (500 x g, 5 min). The cell pellet was resuspended in Leibovitz’ L-15 medium containing 1% FCS and the cell density was adjusted to 1 x 10^6 cells/mL. The serial dilutions of the tested fluorescent ligands and famotidine (competitor, for non-specific binding) were prepared in DMSO/H2O (1:1, v/v). All incubation steps were performed in 96-well Primaria^TM plates (CORNING, NY, USA). 200 µL of the adjusted cell suspension were either added to 2 µL of DMSO/H2O (1:1, v/v, total binding) or to 2 µl of famotidine (300-fold excess over the fluorescent ligand, non-specific binding). Incubation was started by addition of 2 µL of the respective fluorescent ligand in different concentrations (100-fold concentrated with respect to the final concentration). […] Samples were transferred to 5 mL polystyrol FACS tubes (Sarstedt, Nümbrecht, Germany) and measured immediately. […]

[10] = representative NanoBRET saturation isotherm, result from single experiment, HEK293T NLuc-hH2R, read-out: Kd* (single experiment)
[11] = saturation binding, live HEK293T cells stably expressing NLuc-hH2R, mean ± SEM, read-out: pKd (NanoBRET) (converted)

T1 sequence (P25021+P63092 fused): as the sequence (P25021+P63092 fused) above

SMILES: CNC(=C[N+](=O)[O-])NCCSCc1ccc(CN(C)C)o1 [Compound 3, ranitidine]
pKi (RL comp. binding CHO membranes) (hH2R [4]): 7.07[32]

SMILES: CN/C(=N/CCSCc1nc[nH]c1C)NC#N [Compound 2, cimetidine]
pKi (RL comp. binding CHO membranes) (hH2R [4]): 6.18[32]

SMILES: O=C(CCCCCNC(=O)COc1ccc(/C=C/C2=[N+]3C(=Cc4ccc(-c5cccs5)n4[B-]3(F)F)C=C2)cc1)NCCCCNc1c(NCCCOc2cccc(CN3CCCCC3)c2)c(=O)c1=O [Compound 10]
Ki (hH2R-Gsαs fusion protein [5]): 4.47 nM | Kb (hH2R [6]): 8.13 nM | Adsorption to plastic vessel ([7]; BB/DMSO 1:1, rt): reduced adsorption | Chemical stability (degradation) ([7]; binding buffer pH 7.4, rt): no chemical degradation | HPLC signal of compound after incubation (adsorption to plastic vessel) ([7]; binding buffer pH 7.4, rt, after one hour): almost no signal | Kd (NLuc-hH2R [8]; [10]): 2.99 nM | Kd (NLuc-hH2R [8]; [11]): 2.57 nM | Kd (hH2R [9]): 13.8 nM

SMILES: CN(C)c1ccc2c(-c3ccc(C(=O)NCCCCNc4c(NCCCOc5cccc(CN6CCCCC6)c5)c(=O)c4=O)cc3C(=O)[O-])c3ccc(N(C)C)cc3[o+]c2c1 [Compound 9, 2-(3,6-Bis(dimethylamino)xanthylium-9-yl)-5-((4-((3,4-dioxo-2-((3-(3-(piperidin-1-ylmethyl)phenoxy)propyl)amino)cyclo-but-1-en-1-yl)amino)butyl)carbamoyl)benzoate]
Ki (hH2R-Gsαs fusion protein [5]): 100 nM | Kb (hH2R [6]): 66.1 nM | Chemical stability (decomposition) ([7]; binding buffer pH 7.4, rt, 24 h incubation): no decomposition | Kd (NLuc-hH2R [8]; [10]): 143 nM | Kd (NLuc-hH2R [8]; [11]): 145 nM | Kd (hH2R [9]): 562 nM

SMILES: Cc1nc(N)sc1CCCNC(=N)NCCCCCCCCNC(=N)NCCCc1sc(N)nc1C [Compound 12, reference compound]
Ki (NLuc-hH2R [2]): 1320 nM | Ki (hH2R-Gsαs fusion protein [5]): 457 nM

The next lines start with results.

Kd (hH2R-Gsαs fusion protein [1]): 11.2 nM
SMILES: [3H]CC([3H])C(=O)NCCCCCCNc1c(NCCCOc2cccc(CN3CCCCC3)c2)c(=O)c1=O (stereo not drawn) [Compound 7]

Ki (NLuc-hH2R [2]): 11.5 nM
SMILES: NC(N)=Nc1nc(CSCCC(N)=NS(N)(=O)=O)cs1 [Compound 4, famotidine]
pKi (RL comp. binding Sf9 membranes) (hH2R-Gsαs fusion protein [3]): 6.87[28] | pKi (RL comp. binding CHO membranes) (hH2R [4]): 7.80[32]

Ki (NLuc-hH2R [2]): 1020 nM | Ki (hH2R-Gsαs fusion protein [5]): 251 nM
SMILES: CCCCCCCCCCCCNC(=N)NCCCc1sc(N)nc1C [Compound 11, reference compound]

— PMC7414126 (Scientific Reports, 2020)
